From ChEMBL document CHEMBL5046278, “Synthesis and Evaluation of Novel Tetrahydronaphthyridine CXCR4 Antagonists with Improved Drug-like Profiles” (J Med Chem, 2022)

Tests used:
[1] = Oral bioavailability in mouse at 10 mg/kg measured at 24 hrs by LC-MS/MS analysis; assay type: ADME, organism-based; settings: in vivo
D(2) dopamine receptor = D(2) dopamine receptor (Homo sapiens, UniProt P14416); assay: Inhibition of dopamine D2 receptor (unknown origin)
[2] = biological target: C-C chemokine receptor type 4 (Homo sapiens) (UniProt P51679); assay: Inhibition of human CCR4 at 10 uM relative to control
[3] = Antagonist activity at mAChR (unknown origin) expressed in CCRF-CEM cells assessed as inhibition of calcium release by calcium flux assay; assay type: cell-based; settings: Homo sapiens
[4] = Cytotoxicity against human TZM-bl cells assessed as reduction in cell viability incubated for 4 hrs by […] assay; assay type: toxicity, cell-based; settings: read-out: TC50
Homo sapiens [5] = species: Homo sapiens; assay: Selectivity index, ratio of IC50 for inhibition of recombinant human CYP2C19 (unknown origin) to IC50 for antagonist activity at human CXCR4 receptor expressed in CCRF-CEM cells; assay type: cell-based
[6] = biological target: Voltage-gated inwardly rectifying potassium channel KCNH2 (Homo sapiens, UniProt Q12809); assay: Inhibition of human ERG by [3H]]Astemizole binding assay; assay type: toxicity
Homo sapiens [7] = species: Homo sapiens; assay: Selectivity index, ratio of IC50 for inhibition of alpha 2A adrenergic receptor (unknown origin) to IC50 for antagonist activity at human CXCR4 receptor expressed in CCRF-CEM cells; assay type: cell-based
[8] = Oral bioavailability in mouse at 3 mg/kg measured at 24 hrs by LC-MS/MS analysis; assay type: ADME, organism-based; settings: in vivo
Mu-type opioid receptor = Mu-type opioid receptor (Homo sapiens, UniProt P35372); assay: Inhibition of mu opioid receptor (unknown origin)
[9] = Metabolic stability in rat liver microsomes assessed compound remaining measured after 10 mins in presence of NADPH; assay type: ADME, Microsome; settings: read-out: Stability
[10] = Drug concentration in mouse plasma at 10 mg/kg, po measured at 12 hrs by LC-MS/MS analysis; assay type: ADME, organism-based
Homo sapiens [11] = species: Homo sapiens; assay: Selectivity index, ratio of IC50 for inhibition of recombinant human CYP2C9 to IC50 for antagonist activity at human CXCR4 receptor expressed in CCRF-CEM cells; assay type: cell-based
[12] = AUC(0 to 8 h) in mouse plasma at 3 mg/kg, iv measured at 24 hrs by LC-MS/MS analysis; assay type: ADME, organism-based; design: route intravenous, time 24 hrs, dose 3 mg/kg; settings: in vivo
Homo sapiens [13] = species: Homo sapiens; assay: Selectivity index, ratio of IC50 for inhibition of dopamine D2 receptor (unknown origin) to IC50 for antagonist activity at human CXCR4 receptor expressed in CCRF-CEM cells; assay type: cell-based
[14] = Volume of distribution in mouse at 3 mg/kg, measured at 24 hrs by LC-MS analysis; assay type: ADME, organism-based; settings: in vivo
[15] = biological target: C-C chemokine receptor type 6 (Homo sapiens) (UniProt P51684); assay: Inhibition of human CCR6 at 10 uM relative to control
[16] = biological target: C-X-C chemokine receptor type 1 (Homo sapiens) (UniProt P25024); assay: Inhibition of human CXCR1 at 10 uM relative to control
Cytochrome P450 2C19 = Cytochrome P450 2C19 (Homo sapiens, UniProt P33261); assay: Inhibition of CYP2C19 (unknown origin); assay type: ADME
Homo sapiens [17] = species: Homo sapiens; assay: Selectivity index, ratio of IC50 for inhibition of alpha7 nicotinic acetylcholine receptor (unknown origin) to IC50 for antagonist activity at human CXCR4 receptor expressed in CCRF-CEM cells; assay type: cell-based
[18] = biological target: T1, Alpha-2A adrenergic receptor (Homo sapiens, UniProt P08913); assay: Inhibition of alpha 2A adrenergic receptor (unknown origin)
T1 sequence (P08913 whole entry): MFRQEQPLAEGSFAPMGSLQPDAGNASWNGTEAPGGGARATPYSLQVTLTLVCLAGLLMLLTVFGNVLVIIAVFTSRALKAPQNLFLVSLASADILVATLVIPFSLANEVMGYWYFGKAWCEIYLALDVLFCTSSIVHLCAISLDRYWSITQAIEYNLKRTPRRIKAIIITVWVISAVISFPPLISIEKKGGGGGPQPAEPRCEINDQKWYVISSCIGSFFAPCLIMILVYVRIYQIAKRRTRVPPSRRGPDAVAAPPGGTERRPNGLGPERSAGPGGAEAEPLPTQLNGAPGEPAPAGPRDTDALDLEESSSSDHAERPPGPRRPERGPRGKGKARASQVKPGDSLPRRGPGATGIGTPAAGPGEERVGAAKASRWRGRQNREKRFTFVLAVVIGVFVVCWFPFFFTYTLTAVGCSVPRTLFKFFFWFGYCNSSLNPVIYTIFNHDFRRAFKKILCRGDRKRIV

Homo sapiens [19] = species: Homo sapiens; assay: Selectivity index, ratio of IC50 for inhibition of M2 mAChR receptor (unknown origin) to IC50 for antagonist activity at human CXCR4 receptor expressed in CCRF-CEM cells; assay type: cell-based
Cytochrome P450 2D6 = Cytochrome P450 2D6 (Homo sapiens, UniProt P10635); assay: Inhibition of recombinant human CYP2D6 using AMMC as substrate preincubated for 30 mins followed by substrate addition measured after 45 mins by fluorescence based assay; assay type: ADME
Homo sapiens [20] = species: Homo sapiens; assay: Selectivity index, ratio of IC50 for inhibition of recombinant human CYP3A4 to IC50 for antagonist activity at human CXCR4 receptor expressed in CCRF-CEM cells; assay type: cell-based
[21] = biological target: C-C chemokine receptor type 5 (Homo sapiens) (UniProt P51681); assay: Inhibition of human CCR5 at 10 uM relative to control
Homo sapiens [22] = species: Homo sapiens; assay: Selectivity index, ratio of IC50 for antagonist activity at mAChR (unknown origin) to IC50 for antagonist activity at human CXCR4 receptor
[23] = Cmax in mouse at 10 mg/kg, po measured after 8 hrs by LC-MS/MS analysis; assay type: ADME, organism-based; design: route oral, time 8 hrs, dose 10 mg/kg; settings: in vivo
Cytochrome P450 2C9 = Cytochrome P450 2C9 (Homo sapiens, UniProt P11712); assay: Inhibition of CYP2C9 (unknown origin); assay type: ADME
[24] = biological target: C-X-C chemokine receptor type 3 (Homo sapiens) (UniProt P49682); assay: Inhibition of human CXCR3 at 10 uM relative to control
Homo sapiens [25] = species: Homo sapiens; assay: Selectivity index, ratio of IC50 for inhibition of recombinant human CYP2D6 to IC50 for antagonist activity at human CXCR4 receptor expressed in CCRF-CEM cells; assay type: cell-based
Homo sapiens [26] = species: Homo sapiens; assay: Selectivity index, ratio of IC50 for inhibition of recombinant human CYP2C8 to IC50 for antagonist activity at human CXCR4 receptor expressed in CCRF-CEM cells; assay type: cell-based
[27] = Cmax in mouse at 3 mg/kg, iv measured after 8 hrs by LC-MS/MS analysis; assay type: ADME, organism-based; design: route intravenous, time 8 hrs, dose 3 mg/kg; settings: in vivo
[28] = Drug concentration in mouse plasma at 30 mg/kg, po measured at 12 hrs by LC-MS analysis; assay type: ADME, organism-based
Cytochrome P450 1A2 = Cytochrome P450 1A2 (Homo sapiens, UniProt P05177); assay: Inhibition of CYP1A2(unknown origin); assay type: ADME
Sequence of Cytochrome P450 1A2 (P05177 whole entry): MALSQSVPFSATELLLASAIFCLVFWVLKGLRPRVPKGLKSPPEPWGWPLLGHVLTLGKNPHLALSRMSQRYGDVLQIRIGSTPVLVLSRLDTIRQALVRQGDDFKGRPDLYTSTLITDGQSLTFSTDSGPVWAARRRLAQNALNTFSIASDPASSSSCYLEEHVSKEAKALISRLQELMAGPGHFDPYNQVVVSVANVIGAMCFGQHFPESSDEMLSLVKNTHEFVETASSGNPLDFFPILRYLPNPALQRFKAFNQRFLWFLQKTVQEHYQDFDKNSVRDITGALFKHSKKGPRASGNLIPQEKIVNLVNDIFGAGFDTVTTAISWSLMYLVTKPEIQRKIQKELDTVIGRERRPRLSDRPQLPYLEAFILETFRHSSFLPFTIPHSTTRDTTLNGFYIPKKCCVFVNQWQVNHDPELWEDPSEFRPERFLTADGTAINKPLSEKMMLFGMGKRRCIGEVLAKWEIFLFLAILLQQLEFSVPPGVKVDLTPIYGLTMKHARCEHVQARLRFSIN

Sequence of C-X-C chemokine receptor type 1 (Homo sapiens) (P25024 whole entry): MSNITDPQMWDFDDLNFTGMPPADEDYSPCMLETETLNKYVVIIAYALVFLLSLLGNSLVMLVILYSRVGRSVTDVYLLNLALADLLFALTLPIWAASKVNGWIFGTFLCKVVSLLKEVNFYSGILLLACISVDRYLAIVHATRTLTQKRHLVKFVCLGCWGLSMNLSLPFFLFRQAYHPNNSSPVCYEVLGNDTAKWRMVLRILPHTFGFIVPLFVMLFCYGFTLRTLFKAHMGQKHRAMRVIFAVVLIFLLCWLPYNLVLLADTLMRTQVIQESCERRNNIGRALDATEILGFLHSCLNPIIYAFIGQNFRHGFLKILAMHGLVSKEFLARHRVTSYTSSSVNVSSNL
Sequence of Cytochrome P450 2C19 (P33261 whole entry): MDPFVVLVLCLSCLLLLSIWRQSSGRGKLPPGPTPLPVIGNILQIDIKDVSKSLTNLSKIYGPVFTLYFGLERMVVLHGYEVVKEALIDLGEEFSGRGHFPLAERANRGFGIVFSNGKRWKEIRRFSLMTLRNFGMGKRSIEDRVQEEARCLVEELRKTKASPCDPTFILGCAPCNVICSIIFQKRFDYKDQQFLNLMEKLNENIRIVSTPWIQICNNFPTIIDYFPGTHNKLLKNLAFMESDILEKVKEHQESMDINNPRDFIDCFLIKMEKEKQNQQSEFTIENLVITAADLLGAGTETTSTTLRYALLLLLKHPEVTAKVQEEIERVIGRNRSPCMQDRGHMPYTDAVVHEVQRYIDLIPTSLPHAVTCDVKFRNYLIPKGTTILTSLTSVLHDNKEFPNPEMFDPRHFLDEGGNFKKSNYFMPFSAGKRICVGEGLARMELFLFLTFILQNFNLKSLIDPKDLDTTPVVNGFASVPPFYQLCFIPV
Sequence of C-C chemokine receptor type 5 (Homo sapiens) (P51681 whole entry, looked up): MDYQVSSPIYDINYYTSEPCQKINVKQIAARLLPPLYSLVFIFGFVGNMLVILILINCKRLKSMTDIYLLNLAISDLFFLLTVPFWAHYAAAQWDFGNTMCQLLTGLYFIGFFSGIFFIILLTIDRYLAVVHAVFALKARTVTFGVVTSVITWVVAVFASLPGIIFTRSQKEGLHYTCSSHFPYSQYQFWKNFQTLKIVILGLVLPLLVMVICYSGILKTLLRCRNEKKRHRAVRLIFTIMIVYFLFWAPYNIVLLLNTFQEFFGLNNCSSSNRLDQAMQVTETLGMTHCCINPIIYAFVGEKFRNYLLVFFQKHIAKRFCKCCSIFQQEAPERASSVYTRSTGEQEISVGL
Sequence of C-C chemokine receptor type 4 (Homo sapiens) (P51679 whole entry): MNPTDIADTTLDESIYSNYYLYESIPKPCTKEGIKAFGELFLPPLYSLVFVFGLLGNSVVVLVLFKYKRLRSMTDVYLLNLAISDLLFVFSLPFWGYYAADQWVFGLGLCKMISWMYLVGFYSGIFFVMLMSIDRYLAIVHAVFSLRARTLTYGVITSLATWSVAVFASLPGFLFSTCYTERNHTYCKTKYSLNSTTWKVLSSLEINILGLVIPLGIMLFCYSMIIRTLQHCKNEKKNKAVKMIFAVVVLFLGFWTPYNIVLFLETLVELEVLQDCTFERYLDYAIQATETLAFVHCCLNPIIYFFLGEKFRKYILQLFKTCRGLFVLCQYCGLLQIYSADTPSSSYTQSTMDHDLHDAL
Sequence of D(2) dopamine receptor (P14416 whole entry): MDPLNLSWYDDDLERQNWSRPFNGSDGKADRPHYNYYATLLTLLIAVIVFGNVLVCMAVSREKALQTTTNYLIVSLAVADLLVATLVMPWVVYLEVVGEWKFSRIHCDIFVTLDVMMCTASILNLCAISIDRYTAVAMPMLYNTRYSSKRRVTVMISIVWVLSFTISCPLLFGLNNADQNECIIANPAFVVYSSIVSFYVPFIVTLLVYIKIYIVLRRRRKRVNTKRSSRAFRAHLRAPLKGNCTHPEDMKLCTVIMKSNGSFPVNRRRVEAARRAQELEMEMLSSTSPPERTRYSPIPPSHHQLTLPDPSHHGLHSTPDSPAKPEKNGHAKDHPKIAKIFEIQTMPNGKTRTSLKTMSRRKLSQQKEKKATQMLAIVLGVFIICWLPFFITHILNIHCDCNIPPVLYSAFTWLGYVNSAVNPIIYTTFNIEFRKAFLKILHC
Sequence of Cytochrome P450 2D6 (P10635 whole entry): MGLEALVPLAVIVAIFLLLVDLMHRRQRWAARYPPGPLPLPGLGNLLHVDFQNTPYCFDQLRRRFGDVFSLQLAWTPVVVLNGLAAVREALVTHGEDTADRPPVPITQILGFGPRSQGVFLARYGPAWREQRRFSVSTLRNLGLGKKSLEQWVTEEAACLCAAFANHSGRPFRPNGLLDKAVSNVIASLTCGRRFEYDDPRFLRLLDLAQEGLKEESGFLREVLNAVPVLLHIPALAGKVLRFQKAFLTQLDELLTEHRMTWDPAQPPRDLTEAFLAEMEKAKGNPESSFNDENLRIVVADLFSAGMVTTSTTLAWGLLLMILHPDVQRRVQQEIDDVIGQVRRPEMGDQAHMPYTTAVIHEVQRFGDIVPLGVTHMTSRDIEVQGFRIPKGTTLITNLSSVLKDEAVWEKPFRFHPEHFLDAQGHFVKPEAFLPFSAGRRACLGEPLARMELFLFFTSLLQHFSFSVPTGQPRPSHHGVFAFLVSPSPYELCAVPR
Sequence of C-X-C chemokine receptor type 3 (Homo sapiens) (P49682 whole entry): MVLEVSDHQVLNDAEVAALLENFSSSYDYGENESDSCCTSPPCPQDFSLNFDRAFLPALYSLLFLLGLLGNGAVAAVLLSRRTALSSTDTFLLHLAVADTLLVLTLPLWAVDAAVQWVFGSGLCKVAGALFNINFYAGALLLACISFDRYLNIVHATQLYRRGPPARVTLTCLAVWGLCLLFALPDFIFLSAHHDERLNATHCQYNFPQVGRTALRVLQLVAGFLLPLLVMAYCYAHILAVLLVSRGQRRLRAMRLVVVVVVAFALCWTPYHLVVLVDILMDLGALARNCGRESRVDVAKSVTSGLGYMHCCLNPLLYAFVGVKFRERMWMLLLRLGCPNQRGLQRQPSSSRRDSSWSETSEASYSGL
Sequence of Voltage-gated inwardly rectifying potassium channel KCNH2 (Q12809 whole entry): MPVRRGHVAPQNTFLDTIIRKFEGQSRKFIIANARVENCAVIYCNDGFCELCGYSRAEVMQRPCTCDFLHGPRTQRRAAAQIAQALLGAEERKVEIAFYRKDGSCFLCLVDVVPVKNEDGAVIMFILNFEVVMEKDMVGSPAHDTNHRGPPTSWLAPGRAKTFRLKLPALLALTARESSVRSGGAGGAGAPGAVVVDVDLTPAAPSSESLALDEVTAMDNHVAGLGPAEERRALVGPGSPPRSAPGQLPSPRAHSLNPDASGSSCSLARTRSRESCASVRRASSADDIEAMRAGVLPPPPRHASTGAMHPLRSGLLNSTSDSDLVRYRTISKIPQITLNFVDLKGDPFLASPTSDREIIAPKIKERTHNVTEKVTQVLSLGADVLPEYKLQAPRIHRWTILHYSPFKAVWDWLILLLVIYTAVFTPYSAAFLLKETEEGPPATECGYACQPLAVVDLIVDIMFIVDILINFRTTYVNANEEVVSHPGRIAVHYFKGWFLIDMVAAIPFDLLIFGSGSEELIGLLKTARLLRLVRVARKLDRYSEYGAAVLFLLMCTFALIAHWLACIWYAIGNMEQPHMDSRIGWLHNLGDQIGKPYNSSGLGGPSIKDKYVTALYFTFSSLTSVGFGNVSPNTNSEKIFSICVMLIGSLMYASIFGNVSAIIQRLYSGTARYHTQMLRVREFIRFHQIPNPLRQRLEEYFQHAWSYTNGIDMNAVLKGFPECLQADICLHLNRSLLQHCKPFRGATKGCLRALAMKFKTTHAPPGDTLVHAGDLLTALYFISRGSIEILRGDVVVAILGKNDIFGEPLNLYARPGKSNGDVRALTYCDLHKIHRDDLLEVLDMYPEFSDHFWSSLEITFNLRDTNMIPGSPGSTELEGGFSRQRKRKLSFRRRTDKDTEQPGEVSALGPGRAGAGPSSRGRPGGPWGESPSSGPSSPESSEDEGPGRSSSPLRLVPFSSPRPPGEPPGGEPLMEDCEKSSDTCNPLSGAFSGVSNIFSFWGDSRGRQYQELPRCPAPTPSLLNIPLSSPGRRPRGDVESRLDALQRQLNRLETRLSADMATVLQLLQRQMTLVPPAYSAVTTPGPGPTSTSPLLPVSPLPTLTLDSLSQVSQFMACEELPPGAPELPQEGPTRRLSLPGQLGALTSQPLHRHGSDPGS
Sequence of C-C chemokine receptor type 6 (Homo sapiens) (P51684 whole entry): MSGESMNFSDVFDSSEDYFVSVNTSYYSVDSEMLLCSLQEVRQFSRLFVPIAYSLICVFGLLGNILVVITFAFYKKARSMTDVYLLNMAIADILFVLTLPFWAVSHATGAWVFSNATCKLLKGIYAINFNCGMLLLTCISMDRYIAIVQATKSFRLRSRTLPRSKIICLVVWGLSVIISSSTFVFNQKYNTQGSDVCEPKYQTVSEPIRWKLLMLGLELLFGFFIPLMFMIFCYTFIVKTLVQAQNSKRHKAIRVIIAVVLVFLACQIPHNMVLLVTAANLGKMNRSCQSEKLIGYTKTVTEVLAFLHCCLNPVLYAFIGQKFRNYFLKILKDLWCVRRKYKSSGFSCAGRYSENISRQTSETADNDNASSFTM

## CN(CCCCN(C[C@H]1Cc2ncccc2CN1)[C@H]1CCCc2cccnc21)C1CCC(F)(F)CC1
[1]
  bioavailability: 21.5%
D(2) dopamine receptor
  IC50: > 30 µM
[2]
  inhibition: < 5%
[3]
  IC50: > 17 µM
[4]
  CC50 at 4 h: > 10 µM
Homo sapiens [5]
  Selectivity Index: > 710
[6]
  IC50: 17 µM
Homo sapiens [7]
  Selectivity Index: > 1000
[8]
  bioavailability: 12.9%
Mu-type opioid receptor
  IC50: > 30 µM
[9]
  remaining at 10 min: 8%
[10]
  concentration at 12 h: 14.3 ng/mL
Homo sapiens [11]
  Selectivity Index: > 710
[12]
  AUC: 265 h/ng/mL
Homo sapiens [13]
  Selectivity Index: > 1000
[14]
  Vd: 96.3 L/kg
[15]
  inhibition: < 5%
[16]
  inhibition: < 5%
Cytochrome P450 2C19
  IC50: > 20 µM
Homo sapiens [17]
  Selectivity Index: > 1000
[18]
  IC50: 0.81 µM
Homo sapiens [19]
  Selectivity Index: > 1000
Cytochrome P450 2D6
  IC50: 13 µM
Homo sapiens [20]
  Selectivity Index: > 710
[21]
  inhibition: < 5%
Homo sapiens [22]
  Selectivity Index: > 710
[23]
  Cmax: 54.8 ng/mL
Cytochrome P450 2C9
  IC50: > 20 µM
[24]
  inhibition: < 5%
Homo sapiens [25]
  Selectivity Index: 540
Homo sapiens [26]
  Selectivity Index: > 710
[27]
  Cmax: 116 ng/mL
[28]
  concentration at 12 h: 34.8 ng/mL
Cytochrome P450 1A2
  IC50: > 20 µM
